Measurements: patent US9493438B2, “4,4-difluoro-piperidine-compounds” (ROTTAPHARM BIOTECH S.R.L., priority 2012, dated 2016)

Legend:
human OX2 receptors = target: T1, human OX2 receptors (Homo sapiens, UniProt O43614); test: antagonistic activity against human OX2 receptor, [Ca2+]i fluorimetry in transfected HEK-293 cells; format: cell-based; details: read-out: PKb OX2 (converted)
T1 construct: expressed in transfected cells; host or cells: HEK-293 cells
T1 sequence (O43614 1-444): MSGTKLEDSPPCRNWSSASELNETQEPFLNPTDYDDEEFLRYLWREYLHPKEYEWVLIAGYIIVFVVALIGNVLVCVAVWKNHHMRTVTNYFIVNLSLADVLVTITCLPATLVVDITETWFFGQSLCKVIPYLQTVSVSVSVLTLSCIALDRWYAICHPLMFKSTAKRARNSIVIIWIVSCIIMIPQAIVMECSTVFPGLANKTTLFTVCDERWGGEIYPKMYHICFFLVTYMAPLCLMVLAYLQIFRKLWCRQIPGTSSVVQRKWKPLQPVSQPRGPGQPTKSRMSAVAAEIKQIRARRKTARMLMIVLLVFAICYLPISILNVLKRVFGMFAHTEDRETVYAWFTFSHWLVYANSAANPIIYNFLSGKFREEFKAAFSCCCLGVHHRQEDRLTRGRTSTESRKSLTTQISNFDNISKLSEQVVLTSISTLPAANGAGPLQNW
Method: (§1) Thus the plate was loaded with the calcium dye (Fluo-4NW/probenecid in HBSS, Hepes 20 mM, pH 7.4; Invitrogen) at 37° C. for 60 min. Afterward the temperature was equilibrated at 22° C. for 15 min and the [Ca2+]i measured directly on the plate by using a fluorescent plate reader (CeliLux Perkin Elmer).
(§2) Invention compounds were dissolved in DMSO, diluted in HBSS (DMSO, 0.3% final) and added to the wells. After 5 min CHO cells were activated with orexin-A, 3 nM while HEK-293 cells were activated with orexin-B, 10 nM. […] The antagonistic activity has been expressed as pKb (co-logarithm of the apparent dissociation constant calculated by using the modified Cheng Prusoff equation). The results are expressed as percent of control specific […] response ((measured specific response/control specific agonist response)×100) obtained in the presence of the test compounds.
(§3) The IC50 values (concentration causing a half-maximal inhibition of the control specific agonist response) were determinated by non-linear regression analysis of the concentration curves generated with mean replicate values using hill equation curve fitting. The IC50 values are obtained by the arithmetical mean of at least two experiments.

human OX1 receptors = target: T2, human OX1 receptors (Homo sapiens, UniProt O43613); test: antagonistic activity against human OX1 receptor, [Ca2+]i fluorimetry in transfected CHO cells; format: cell-based; details: CHO cells transfected with human recombinant OX1; activated with orexin-A 3 nM; pKb = co-logarithm of apparent dissociation constant (modified Cheng Prusoff)
T2 construct: expressed in transfected cells; host or cells: CHO cells
T2 sequence (O43613 1-425): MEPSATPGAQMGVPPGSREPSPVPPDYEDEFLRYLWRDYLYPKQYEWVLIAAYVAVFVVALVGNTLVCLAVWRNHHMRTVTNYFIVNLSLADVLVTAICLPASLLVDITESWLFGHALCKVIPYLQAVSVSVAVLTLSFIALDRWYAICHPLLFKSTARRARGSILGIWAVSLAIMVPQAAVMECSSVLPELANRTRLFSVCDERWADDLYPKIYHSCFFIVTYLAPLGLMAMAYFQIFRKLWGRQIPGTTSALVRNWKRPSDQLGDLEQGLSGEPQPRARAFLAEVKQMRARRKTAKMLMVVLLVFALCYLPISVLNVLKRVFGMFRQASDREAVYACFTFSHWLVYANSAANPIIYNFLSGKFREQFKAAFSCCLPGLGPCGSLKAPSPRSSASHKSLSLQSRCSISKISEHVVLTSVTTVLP
Method: as §1, §2, §3

Kb (human OX2 receptors) [µM] | Kb (human OX1 receptors) [nM] | PKb OX1 (human OX1 receptors) | Compound
10 | 3.98 | – | Cc1ccc(OCC2CC2)c(C(=O)N2CCC(F)(F)CC2CNc2ccc(C(F)(F)F)cn2)n1 (racemic) [Compound 45, (RS)(3-(cyclopropylmethoxy)-6-methylpyridin-2-yl)(4,4-difluoro-2-(((5-(trifluoromethyl)pyridin-2-yl)amino)methyl)piperidin-1-yl)methanone]
10 | 0.794 | – | O=C(c1cccc2cccnc12)N1CCC(F)(F)CC1CNc1ccc(Cl)cn1 (racemic) [Compound 25, (RS)(2-(((5-chloropyridin-2-yl)amino)methyl)-4,4-difluoropiperidin-1-yl)(quinolin-8-yl)methanone]
10 | 1.58 | – | O=C(c1nccc2ccccc12)N1CCC(F)(F)CC1CNc1ccc(C(F)(F)F)cn1 (single isomer, unassigned; isomer a) [Compound 41, (4,4-difluoro-2-(((5-(trifluoromethyl)pyridin-2-yl)amino)methyl)piperidin-1-yl)(isoquinolin-1-yl)methanone (isomer A)]
0.2 | 2.51 | – | Cc1ccc(-n2nccn2)c(C(=O)N2CCC(F)(F)CC2CNc2nc(C)cc(C)n2)c1 (single isomer, unassigned; isomer a) [Compound 4, (2-(((4,6-dimethylpyrimidin-2-yl)amino)methyl)-4,4-difluoropiperidin-1-yl)(5-methyl-2-(2H-1,2,3-triazol-2-yl)phenyl)methanone (isomer A)]
10 | 7.94 | – | COc1ccc(OC)c(C(=O)N2CCC(F)(F)CC2CNc2ccc(Cl)cn2)c1 (racemic) [Compound 11, (RS)(2-(((5-chloropyridin-2-yl)amino)methyl)-4,4-difluoropiperidin-1-yl)(2,5-dimethoxyphenyl)methanone]
10 | 3.98 | – | Cc1ccc(-c2ncccn2)c(C(=O)N2CCC(F)(F)CC2CNc2ncc(C(F)(F)F)cc2F)n1 (racemic) [Compound 31, (RS)(4,4-difluoro-2-(((3-fluoro-5-(trifluoromethyl)pyridin-2-yl)amino)methyl)piperidin-1-yl)(6-methyl-3-(pyrimidin-2-yl)pyridin-2-yl)methanone]
10 | 3.16 | – | Cc1ccc(-c2ccccc2)c(C(=O)N2CCC(F)(F)CC2CNc2cnc(C(F)(F)F)cn2)n1 (racemic) [Compound 43]
– | 10 | – | Cc1nc(C(=O)N2CCC(F)(F)CC2CNc2ccc(Cl)cn2)c(-c2ccccc2)s1 (racemic) [Compound 1, (RS)(2-(((5-chloropyridin-2-yl)amino)methyl)-4,4-difluoropiperidin-1-yl)(2-methyl-5-phenylthiazol-4-yl)methanone]
– | 79.4 | – | O=C(c1nccc2ccccc12)N1CCC(F)(F)CC1CNc1ccc(Cl)cn1 (single isomer, unassigned; isomer a) [Compound 23, (2-(((5-chloropyridin-2-yl)amino)methyl)-4,4-difluoropiperidin-1-yl)(isoquinolin-1-yl)methanone (isomer A)]
– | 25.1 | – | Cc1ncc(-c2ccc(F)cc2C(=O)N2CCC(F)(F)CC2CNc2ccc(C(F)(F)F)cn2)cn1 (racemic) [Compound 30, (RS)(4,4-difluoro-2-(((5-(trifluoromethyl)pyridin-2-yl)amino)methyl)piperidin-1-yl)(5-fluoro-2-(2-methylpyrimidin-5-yl)phenyl)methanone]
– | 100 | – | Cc1ccc(-c2ncccn2)c(C(=O)N2CCC(F)(F)CC2CNc2ccc(Cl)cn2)n1 (single isomer, unassigned; isomer b) [Compound 17, (2-(((5-chloropyridin-2-yl)amino)methyl)-4,4-difluoropiperidin-1-yl)(6-methyl-3-(pyrimidin-2-yl)pyridin-2-yl)methanone (isomer B)]
– | 7.94 | – | CCOc1ccccc1C(=O)N1CCC(F)(F)CC1CNc1ccc(Cl)cn1 (racemic) [Compound 10, (RS)(2-(((5-chloropyridin-2-yl)amino)methyl)-4,4-difluoropiperidin-1-yl)(2-ethoxyphenyl)methanone]
– | 2 | – | Cc1nc(C(=O)N2CCC(F)(F)CC2CNc2ccc(Cl)cn2)c(-c2ccccc2)s1 (single isomer, unassigned; isomer a) [Compound 2, (2-(((5-chloropyridin-2-yl)amino)methyl)-4,4-difluoropiperidin-1-yl)(2-methyl-5-phenylthiazol-4-yl)methanone (isomer A)]
– | 1.58 | – | Cc1ccc(-n2nccn2)c(C(=O)N2CCC(F)(F)CC2CNc2ccc(Cl)cn2)n1 (single isomer, unassigned; isomer a) [Compound 8, (2-(((5-chloropyridin-2-yl)amino)methyl)-4,4-difluoropiperidin-1-yl)(6-methyl-3-(2H-1,2,3-triazol-2-yl)pyridin-2-yl)methanone (isomer A)]
– | 5.01 | – | O=C(c1ccccc1OCc1ccccc1)N1CCC(F)(F)CC1CNc1ccc(Cl)cn1 (racemic) [Compound 21, (RS)(2-(benzyloxy)phenyl)(2-(((5-chloropyridin-2-yl)amino)methyl)-4,4-difluoropiperidin-1-yl)methanone]
– | 2 | – | O=C(c1nccc2ccccc12)N1CCC(F)(F)CC1CNc1ncc(C(F)(F)F)cc1F (racemic) [Compound 33, (RS)(4,4-difluoro-2-(((3-fluoro-5-(trifluoromethyl)pyridin-2-yl)amino)methyl)piperidin-1-yl)(isoquinolin-1-yl)methanone]
– | 2.51 | – | Cc1ccc(-c2ncccn2)c(C(=O)N2CCC(F)(F)CC2CNc2ccc(Cl)cn2)c1 (single isomer, unassigned; isomer a) [Compound 7, (2-(((5-chloropyridin-2-yl)amino)methyl)-4,4-difluoropiperidin-1-yl)(5-methyl-2-(pyrimidin-2-yl)phenyl)methanone (isomer A)]
– | 5.01 | – | Cc1ccc(-n2nccn2)c(C(=O)N2CCC(F)(F)CC2CNc2ccc(C(F)(F)F)cn2)c1 (racemic) [Compound 5, (RS)(4,4-difluoro-2-(((5-(trifluoromethyl)pyridin-2-yl)amino)methyl)piperidin-1-yl)(5-methyl-2-(2H-1,2,3-triazol-2-yl)phenyl)methanone]
– | 63.1 | – | O=C(c1nc(C(F)(F)F)ccc1-c1ncccn1)N1CCC(F)(F)CC1CNc1ccc(C(F)(F)F)cn1 (single isomer, unassigned; isomer a) [Compound 40, (4,4-difluoro-2-(((5-(trifluoromethyl)pyridin-2-yl)amino)methyl)piperidin-1-yl)(3-(pyrimidin-2-yl)-6-(trifluoromethyl)pyridin-2-yl)methanone (isomer A)]
– | 7.94 | – | Cc1ccc(-c2ncccn2)c(C(=O)N2CCC(F)(F)CC2COc2ccc(C(F)(F)F)cn2)n1 (racemic) [Compound 48, (±)(4,4-difluoro-2-(((5-(trifluoromethyl)pyridine-2-yl)oxy)methyl)piperidin-1-yl)(6-methyl-3-(pyrimidin-2-yl)pyridin-2-yl)methanone]
– | 126 | – | Cc1cnc(-c2ncccn2)c(C(=O)N2CCC(F)(F)CC2CNc2ccc(Cl)cn2)c1 (racemic) [Compound 15, (RS)(2-(((5-chloropyridin-2-yl)amino)methyl)-4,4-difluoropiperidin-1-yl)(5-methyl-2-(pyrimidin-2-yl)pyridin-3-yl)methanone]
– | 2 | – | O=C(c1ccccc1OCC1CC1)N1CCC(F)(F)CC1CNc1ccc(Cl)cn1 (racemic) [Compound 12, (RS)(2-(((5-chloropyridin-2-yl)amino)methyl)-4,4-difluoropiperidin-1-yl)(2-(cyclopropylmethoxy)phenyl)methanone]
– | – | 8.2 | (RS)(4,4-difluoro-2-(((5-(trifluoromethyl)pyridin-2-yl)amino)methyl)piperidin-1-yl)(6-methyl-3-(pyrimidin-2-yl)pyridin-2-yl)methanone [Compound 42]
